Usually IC50 stands for the concentration at which inhibition is half-maximal.

Consider 22 molecules from patent US10508085B2, “Compounds and methods for IDO and TDO modulation, and indications therefor” (Plexxikon Inc., priority 2016, dated 2019).

Bounds are passed on as bounds.

The target of assay [1] is T1, human TDO (TDO-expressing HEK293 cells) (Homo sapiens, UniProt P48775).
T1 construct: expressed in transfected cells
Description: Cell based kynurenine assay, TDO-expressing HEK293 cell clones. Particulars: TDO-expressing HEK293 cells, 24 hours incubation; geometric mean; read-out: HEK293 TDO Kynurenine GMean IC50 (μM) (Cellular Assay). On the procedure:
(§1) Determine Inhibitor Activity Against IDO or TDO in Cell Based Kynurenine Assay
(§2) IDO1-expressing or TDO-expressing HEK293 cell clones are generated upon stable transfection of plasmids expressing human IDO or human TDO under the control of CMV promoter. Cells are selected in DMEM media supplemented with 10% fetal bovine serum and 1 mg/ml G418 at 37° C. in a humidified incubator supplied with 5% CO2. The assays are performed as follows.
(§3) Cells were seeded in a 96 well plate in 50 μL of culture media at a density of 2.5×10^4 per well. Serial dilutions of compounds (in total volume of 50 μL culture media) are added into cells. 4 wells containing 0.2% DMSO treated cells serve as high controls and 4 wells containing media only with 0.2% DMSO serve as low controls. After 24 hours of incubation, the supernatant was transferred to a 384 well reaction plate and the kynurenine level determined. The percentage inhibition at individual concentrations relative to high and low controls is calculated. The data is analyzed by using nonlinear regression to generate IC50 values.

The target of assay [2] is T2, human IDO (IDO1-expressing HEK293 cells) (Homo sapiens, UniProt P14902).
T2 construct: expressed in transfected cells
T2 sequence (P14902 whole entry): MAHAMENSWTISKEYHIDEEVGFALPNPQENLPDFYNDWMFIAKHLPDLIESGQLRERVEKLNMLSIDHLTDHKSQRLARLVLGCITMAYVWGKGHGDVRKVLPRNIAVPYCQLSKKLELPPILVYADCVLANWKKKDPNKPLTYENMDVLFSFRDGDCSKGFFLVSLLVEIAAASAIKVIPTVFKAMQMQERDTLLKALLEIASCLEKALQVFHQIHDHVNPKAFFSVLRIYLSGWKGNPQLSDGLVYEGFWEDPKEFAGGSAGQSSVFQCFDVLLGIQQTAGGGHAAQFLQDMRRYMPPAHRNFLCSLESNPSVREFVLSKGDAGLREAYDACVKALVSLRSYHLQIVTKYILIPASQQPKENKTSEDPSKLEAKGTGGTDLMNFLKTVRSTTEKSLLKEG
Description: Cell based kynurenine assay, IDO1-expressing HEK293 cell clones. To be noted: IDO1-expressing HEK293 cells, 24 hours incubation; geometric mean; read-out: HEK293 IDO1 Kynurenine GMean IC50 (μM) (Cellular Assay). The method, then:
as §1, §2, §3

For assay [3], the target named is T3, Human Tryptophan 2,3-dioxygenase (TDO) (Homo sapiens, UniProt P48775).
T3 construct: His tag (N); made in house; host or cells: E. coli
T3 sequence (P48775 whole entry): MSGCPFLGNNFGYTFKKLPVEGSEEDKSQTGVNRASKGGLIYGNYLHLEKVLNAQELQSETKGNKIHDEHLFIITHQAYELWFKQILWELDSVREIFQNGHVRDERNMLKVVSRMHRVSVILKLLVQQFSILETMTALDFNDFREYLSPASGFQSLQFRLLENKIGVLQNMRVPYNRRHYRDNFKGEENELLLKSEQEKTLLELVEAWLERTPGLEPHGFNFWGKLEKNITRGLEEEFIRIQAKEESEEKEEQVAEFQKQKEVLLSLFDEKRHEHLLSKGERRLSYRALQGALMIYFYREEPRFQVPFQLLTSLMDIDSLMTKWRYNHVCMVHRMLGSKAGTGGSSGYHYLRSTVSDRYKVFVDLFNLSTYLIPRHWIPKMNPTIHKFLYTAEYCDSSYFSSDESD
Description: Human TDO enzymatic assay (kynurenine level). Particulars: 1 nM TDO, 350 μM L-Trp; geometric mean; read-out: TDO GMean: IC50 (μM) (Biochemical Assay). Type of assay: biochemical. Summed up:
(§4)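 Compound is mixed with His-tagged enzyme from E. coli in pH 6.5 phosphate buffer containing ascorbate, methylene blue and catalase, at room temperature. IDO uses 6 nM enzyme and 10 μM Trp for 20 min. TDO uses 1 nM enzyme and 350 μM Trp for 70 min. TCA stops the reaction, and IC50 is derived from kynurenine levels.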

Assay [4] concerns the target T4, Human Indoleamine 2,3-dioxygenase (IDO) (Homo sapiens, UniProt P14902).
T4 construct: His tag (N); made in house; host or cells: E. coli
Description: Human IDO enzymatic assay (kynurenine level). To be noted: 6 nM IDO, 10 μM L-Trp; geometric mean; read-out: IDO1 GMean: IC50 (μM) (Biochemical Assay). Type of assay: biochemical. Summed up: as §4

T4 sequence (P14902 whole entry): as the sequence (P14902 whole entry) above
T1 sequence (P48775 whole entry): as the sequence (P48775 whole entry) above

Take `OC1(c2cc(Cl)cc3cn[nH]c23)CC2(CCOCC2)C1` [Compound P-0029, 2-(5-chloro-1H-indazol-7-yl)-7-oxaspiro[3.5]nonan-2-ol]: the 50% inhibitory concentration (IC50) in assay [1], in assay [2], in assay [3] and in assay [4] was 0.0001 to 10 µM each time.
As to `Cc1cc(C2(O)CC3(CCC3)C2)c2[nH]ncc2c1` [Compound P-0030, 2-(5-methyl-1H-indazol-7-yl)spiro[3.3]heptan-2-ol], the concentration for half-maximal inhibition (IC50) in assay [1] is greater than 10 µM; in assay [2] it was greater than 10 µM; in assay [3], 0.0001 to 10 µM; in assay [4], 0.0001 to 10 µM.
In the case of `OC1(c2cc(C(F)(F)F)cc3cn[nH]c23)CC2(CCC2)C1` [Compound P-0031, 2-(5-(trifluoromethyl)-1H-indazol-7-yl)spiro[3.3]heptan-2-ol], the IC50 in assay [1] is greater than 10 µM; in assay [2] it was greater than 10 µM; in assay [3] it was 0.0001 to 10 µM; in assay [4], 0.0001 to 10 µM.
Turning to `CC1(C(O)c2cc(Cl)cc3cn[nH]c23)CCC(F)(F)CC1` (stereo not shown) [Compound P-0032, (5-chloro-1H-indazol-7-yl)(4,4-difluoro-1-methylcyclohexyl)methanol], the concentration for half-maximal inhibition (IC50) in assay [1], in assay [2], in assay [3] and in assay [4] was 0.0001 to 10 µM throughout.
As to `OC(c1cc(Cl)cc2cn[nH]c12)C1(F)CCC(F)(F)CC1` (stereo not shown) [Compound P-0033, (5-chloro-1H-indazol-7-yl)(1,4,4-trifluorocyclohexyl)methanol], the half-inhibitory concentration (IC50) in assay [1], in assay [2], in assay [3] and in assay [4] was 0.0001 to 10 µM each time.
`CS(=O)(=O)N1CCC2(CC1)CC(O)(c1cc(Cl)cc3cn[nH]c13)C2` [Compound P-0034, 2-(5-chloro-1H-indazol-7-yl)-7-(methylsulfonyl)-7-azaspiro[3.5]nonan-2-ol]: the IC50 in assay [1], in assay [2], in assay [3] and in assay [4] was 0.0001 to 10 µM each time.
Regarding `O=S(=O)(C1CC1)N1CCC2(CC1)CC(O)(c1cc(Cl)cc3cn[nH]c13)C2` [Compound P-0035, 2-(5-chloro-1H-indazol-7-yl)-7-(cyclopropylsulfonyl)-7-azaspiro[3.5]nonan-2-ol], the IC50 was 0.0001 to 10 µM in assay [1], greater than 10 µM in assay [2], 0.0001 to 10 µM in assay [3] and 0.0001 to 10 µM in assay [4].
Consider `OC1(c2c(Cl)c(Cl)cc3cn[nH]c23)CC2(CCC2)C1` [Compound P-0036, 2-(5,6-dichloro-1H-indazol-7-yl)spiro[3.3]heptan-2-ol], for which the half-maximal inhibitory concentration (IC50) in assay [1] is greater than 10 µM; in assay [2] it was 0.0001 to 10 µM; in assay [3], 0.0001 to 10 µM; in assay [4] it was 0.0001 to 10 µM.
With `Cc1ccc2cn[nH]c2c1C(O)C12CC3CC(CC(C3)C1)C2` (stereo not shown) [Compound P-0037, ((ls,3s)-adamantan-1-yl)(6-methyl-1H-indazol-7-yl)methanol], the IC50 in assay [1] is greater than 10 µM; in assay [2], 0.0001 to 10 µM; in assay [3], 0.0001 to 10 µM; in assay [4], 0.0001 to 10 µM.
As to `CS(=O)(=O)NC1CC(O)(c2cc(Cl)cc3cn[nH]c23)C1` (stereo not shown) [Compound P-0038, N-(3-(5-chloro-1H-indazol-7-yl)-3-hydroxycyclobutyl)methanesulfonamide], the concentration for half-maximal inhibition (IC50) in assay [1] is 0.0001 to 10 µM; in assay [2], greater than 10 µM; in assay [3], 0.0001 to 10 µM; in assay [4], 0.0001 to 10 µM.
Turning to `OC1(c2cc(Cl)cc3cn[nH]c23)CC2(COC2)C1` [Compound P-0039, 6-(5-chloro-1H-indazol-7-yl)-2-oxaspiro[3.3]heptan-6-ol], the IC50 in assay [1], in assay [2], in assay [3] and in assay [4] was 0.0001 to 10 µM each time.
On to `OC1(c2cc(Cl)cc3cn[nH]c23)CC2(CSC2)C1` [Compound P-0040, 6-(5-chloro-1H-indazol-7-yl)-2-thiaspiro[3.3]heptan-6-ol], for which the IC50 in assay [1], in assay [2], in assay [3] and in assay [4] was 0.0001 to 10 µM throughout.
Turning to `CC1(C(O)c2cc(F)cc3cn[nH]c23)CCCCC1` (stereo not shown) [Compound P-0041, (5-fluoro-1H-indazol-7-yl)(1-methylcyclohexyl)methanol], the IC50 in assay [1], in assay [2], in assay [3] and in assay [4] was 0.0001 to 10 µM each time.
For `OC(c1cc(F)cc2cn[nH]c12)C1CCCCC1` (stereo not shown) [Compound P-0042, cyclohexyl(5-fluoro-1H-indazol-7-yl)methanol], the IC50 in assay [1], in assay [2], in assay [3] and in assay [4] was 0.0001 to 10 µM throughout.
For `OC(c1cc(F)cc2cn[nH]c12)C12CC3CC(CC(C3)C1)C2` (stereo not shown) [Compound P-0043, adamantan-1-yl(5-fluoro-1H-indazol-7-yl)methanol], the 50% inhibitory concentration (IC50) was greater than 10 µM in assay [1], 0.0001 to 10 µM in assay [2], 0.0001 to 10 µM in assay [3] and 0.0001 to 10 µM in assay [4].
Take `O=S(=O)(NC1CC(O)(c2cc(Cl)cc3cn[nH]c23)C1)c1ccccc1` (stereo not shown) [Compound P-0044, N-(3-(5-chloro-1H-indazol-7-yl)-3-hydroxycyclobutyl)benzenesulfonamide]: the 50% inhibitory concentration (IC50) in assay [1] is greater than 10 µM; in assay [2], greater than 10 µM; in assay [3], 10 to 100 µM; in assay [4], 100 to 200 µM.
With `O=S(=O)(NC1CC(O)(c2cc(Cl)cc3cn[nH]c23)C1)C1CC1` (stereo not shown) [Compound P-0045, N-(3-(5-chloro-1H-indazol-7-yl)-3-hydroxycyclobutyl)cyclopropanesulfonamide], the half-inhibitory concentration (IC50) in assay [1] is 0.0001 to 10 µM; in assay [2], greater than 10 µM; in assay [3], 0.0001 to 10 µM; in assay [4], 10 to 100 µM.
As to `CC1(C)CC(O)(c2cc(Cl)cc3cn[nH]c23)CCN1S(C)(=O)=O` (stereo not shown) [Compound P-0046, 4-(5-chloro-1H-indazol-7-yl)-2,2-dimethyl-1-(methylsulfonyl)piperidin-4-ol], the IC50 is greater than 10 µM in assay [1], greater than 10 µM in assay [2], 0.0001 to 10 µM in assay [3] and 0.0001 to 10 µM in assay [4].
For `O=S1(=O)CCC(O)(c2cc(Cl)cc3cn[nH]c23)CC1` [Compound P-0047, 4-(5-chloro-1H-indazol-7-yl)-4-hydroxytetrahydro-2H-thiopyran 1,1-dioxide], the IC50 was 0.0001 to 10 µM in assay [1], greater than 10 µM in assay [2], 0.0001 to 10 µM in assay [3] and 0.0001 to 10 µM in assay [4].
Consider `OC1(c2cc(Cl)cc3cn[nH]c23)CC2(CCCC2)C1` [Compound P-0048, 2-(5-chloro-1H-indazol-7-yl)spiro[3.4]octan-2-ol], for which the half-inhibitory concentration (IC50) in assay [1], in assay [2], in assay [3] and in assay [4] was 0.0001 to 10 µM throughout.
Consider `Cc1ccc2cn[nH]c2c1C(O)C1(C(F)(F)F)CCCC1` (stereo not shown) [Compound P-0049, (6-methyl-1H-indazol-7-yl)(1-(trifluoromethyl)cyclopentyl)methanol], for which the IC50 in assay [1], in assay [2], in assay [3] and in assay [4] was 0.0001 to 10 µM throughout.
In the case of `CC1(C(O)c2cc3c(c4cn[nH]c24)CCCC3)CCCCC1` (stereo not shown) [Compound P-0050, (1-methylcyclohexyl)(6,7,8,9-tetrahydro-3H-benzo[e]indazol-4-yl)methanol], the IC50 in assay [1] is greater than 10 µM; in assay [2] it was 0.0001 to 10 µM; in assay [3] it was 0.0001 to 10 µM; in assay [4], 0.0001 to 10 µM.
